Here are results for one substance from paper PMC12567515, “Assessment of Carrier-Free Metallacarboranes for Targeted Radiation Therapies PBFT and BNCT: Comparative Cellular Effects and Dosimetry Studies with [o-FESAN]^− in Breast Cancer Cells” (Pharmaceuticals, 2025).

For series [1], the system named is MDA-MB-231 cells. In words: Cytotoxicity, MTT assay before irradiation. The settings on record: MDA-MB-231, 24 h treatment. The format is cell-based, human. Here is the method:
(§1) The cytotoxicity of Na[o-FESAN] in breast cancer cells was evaluated to help the selection of the work concentrations for the uptake and irradiation studies. Moreover, the general requirements of therapeutic drugs include, among others, low cytotoxicity and high tumor uptake.
(§2) Before the irradiation studies, the concentrations of Na[o-FESAN] were selected. SKBR-3 and MDA-MB-231 cells were counted with a Neubauer chamber using Trypan Blue exclusion and a Zeiss Primovert microscope, seeded in 96-well plates (1–2 × 10^4 cells/200 µL medium) and incubated at 37 °C for 24 h to adhere. Then, the medium was discarded, and cells were incubated with Na[o-FESAN] at serial concentrations in complete medium in the range 1–300 µM for 24 h. After incubation, the cellular viability was determined using the MTT assay as previously described.
(Tetrazolium assays rely on reduction of a dye to a coloured formazan, in cell work by metabolically active cells.)

The test system of series [2] is SKBR-3 cells. In words: Cytotoxicity, MTT assay before irradiation. The format is cell-based, human. The settings on record: SKBR-3, 24 h treatment. As to the method:
as §1, §2

The subject of series [3] is MDA-MB-231 xenograft-bearing nude mice. In words: Biodistribution (boron by ICP-OES) in MDA-MB-231 xenograft model. The settings on record: 7.5 mg B/kg i.v., 1 and 4 h post-injection. The format is in vivo, mouse. As to the method: The biodistribution of Na[o-FESAN] (7.5 mg B/kg, i.v.) was evaluated in an MDA-MB-231 breast cancer xenograft model, and the results at 1 and 4 h are shown in Figure 2.
All animal experiments were approved by the Animal Care and Use Committee of the Institute of Science Tokyo and performed in accordance with the Guidelines for the Care and Use of Laboratory Animals as stated by the Institute of Science Tokyo (Approval number “D2021007”). All animals were maintained under controlled conditions of temperature and humidity with ad libitum water and feeding. MDA-MB-231 tumor-bearing mice (Balb/cSlc-nu/nu, female, 5–6 weeks old, 14–20 g, Sankyo Labo Service Co., Ltd., Hamamatsu, Japan) were prepared by injecting subcutaneously (s.c.) a suspension of MDA-MB-231 cells (8.0 × 10^5 cells/mouse) directly into the right thigh. The mice were kept on a regular chow diet and water, and maintained under a 12 h light/dark cycle in an ambient atmosphere. When the tumor diameter became 5 to 7 mm, the mice were injected via the tail vein with 200 µL PBS solution of Na[o-FESAN] (7.5 mg B/kg). […] After filtering through a hydrophobic filter, boron concentration was measured by inductively coupled plasma optical emission spectroscopy (ICP-OES) using an iCAP 7400 Duo elemental analyzer (Thermo Fisher Scientific Inc., Waltham, MA, USA).

In series [4] the test system is MDA-MB-231 cells. In words: Viability and proliferation after thermal neutron irradiation (BNCT). The format is cell-based, human. Here is the method: (§3) For neutron irradiation, SKBR-3 and MDA-MB-231 cells were incubated with Na[o-FESAN] at 50 and 100 µM and were irradiated with thermal neutrons at the Triga Mark II nuclear reactor at the University of Pavia. […] Both surviving SKBR-3 and MDA-MB-231 cells that were treated with Na[o-FESAN] […] This clearly indicates the important contribution of neutron capture to induce a long-term cytotoxic effect. Another important point is that the toxic effect was observed using Na[o-FESAN] containing natural B. In fact, the amount of internalized B measured by ICP-MS after 24 h incubation with 50 or 100 µM Na[o-FESAN] contained only 19.9% of the active ^10B isotope. Assuming that in the case of epithelial tumors (with a diameter ranging from 15–20 µm), a density of ca. 10^8 cells for cm^3 is a reasonable number, [76] from the data obtained by ICP-MS analysis, it was possible to calculate the amount of ^10B internalized in cells expressed in ppm (µg/g).
(§4) SKBR-3 and MDA-MB-231 cells were seeded in 25 cm^2 flasks (12 flasks for each cell line) at a density of 6.5 × 10^5 cells. […]
(§5) Twenty-four hours after irradiation, cells were detached with 0.05% trypsin and 0.02% EDTA, and cell viability was evaluated using the trypan blue exclusion test and reported as the percentage of cells observed in treated and/or irradiated samples with respect to that observed in control cells. […] The cell growth was followed for 10 days, and at pre-determined times, the cells were washed with PBS, detached with 0.05% trypsin and 0.02% EDTA, and transferred into falcon tubes. Then, cells were sonicated for 30 s at 30% power in ice, and the total cell protein concentration (that is, proportional to the number of cells) from cell lysates was determined by the Bradford method, using bovine serum albumin as a standard. The cell growth rate was calculated as follows: [(number of cells(ti) − number of cells(t0))/number of cells(t0)] × 100 where (ti) is the number of cells measured at the various time intervals and (t0) is the number of cells at the starting point (t = 0) of the proliferation assay.

Series [5] deals with SKBR-3 cells. The series is described as above. The format is cell-based, human. The settings on record: SKBR-3, 50 and 100 µM, 24 h, thermal neutrons 15 min at 30 kW, growth followed 10 days. Here is the method:
as §3, §4, §5

The test system of series [6] is MDA-MB-231 cells. In words: Intracellular ROS (H2DCF-DA) after proton irradiation. Format: cell-based, human. The settings on record: MDA-MB-231, 50 and 100 µM, 24 h, protons 0.235 Gy, up to 48 h post-irradiation. Here is the method: (§6) In non-irradiated cells (with/without treatment), no appreciable ROS formation was observed.
(§7) Intracellular ROS levels were measured using the 2′,7′-dichlorodihydrofluorescein diacetate (H2DCF-DA) fluorescent probe as previously described. […] Then, the probe (10 µM) in colorless DMEM medium (FluoroBrite™ DMEM, Gibco®, Waltham, MA, USA) was incubated with the cells for an additional 30 min. at 37 °C. Later, the medium was removed and replaced by a fresh one. The fluorescence intensity was continuously measured up to 48 h with a Varioskan LUX scanning multimode reader (Thermo Fisher Scientific, Waltham, MA, USA). Results of fluorescence (mean ± SD) were expressed as the fold change in fluorescence levels compared with controls (non-irradiated treated cells).

In series [7] the test system is SKBR-3 cells. The description is as above. The format is cell-based, human. The settings on record: SKBR-3, 50 and 100 µM, 24 h, protons 0.235 Gy, up to 48 h post-irradiation. Here is the method:
as §6, §7

The subject of series [8] is MDA-MB-231 cells. Kind of series: Morphological analysis by TEM. Format: cell-based, human. The settings on record: MDA-MB-231, 50 µM, 24 h. Here is the method: Transmission electron microscopy (TEM) was used to assess the structural integrity of MDA-MB-231 cells and to examine the effects at the organelle level before and 2 h after irradiation with proton beams (2.0 MeV).
MDA-MB-231 cells were seeded into 6-well plates at approx. 70% confluence. After 24 h, cells were treated with Na[o-FESAN] at 50 µM for 24 h. After incubation, cells were irradiated with a proton beam as described above and processed for TEM analysis 2 h later, following a previously described method. Briefly, the preparation of the cells included several steps of fixation: primary fixation with 3% glutaraldehyde in 0.1 M sodium cacodylate buffer, pH 7.3; secondary fixation with 1% osmium tetroxide in 0.1 M sodium cacodylate buffer, pH 7.3 for 3 h; tertiary fixation and contrasting with 0.5% uranyl acetate in the same buffer for 1 h, dehydration with ethanol and resin (Epon-Araldite) (Merck, Darmstadt, Germany) infiltration and embedding. The stained cells were then photographed and studied using a JEOL 100-SX electron microscope JEOL, Tokyo, Japan.

On the set-up of series [9]: method as in PMID 24737689, PMID 35470838. The settings on record: cited from earlier work.
Details of series [10]: method as in PMID 36373493. The settings on record: cited from earlier work.

Take [3,3′-Fe(1,2-C2B9H11)2]^− [Na[o-FESAN]]: the IC50 was determined as 103 ± 24.9 µM in [1] and 83.5 ± 18.6 µM in [2]. For the same substance, the “Clearance in blood and main organs (heart, liver, lung, kidney, spleen, muscle)” value in [3] is “slow”. For the same substance, the Tumor uptake result in series [3] is “remained relatively high”. Besides, the “Proliferation of surviving cells after neutron irradiation” value in [4] (MDA-MB-231, 50 and 100 µM, 24 h, thermal neutrons 15 min at 30 kW, growth followed 10 days) is “marked inhibition of proliferation”; in [5], “marked inhibition of proliferation”. Further, the “Number of viable cells after treatment and neutron irradiation vs non-treated irradiated cells” value in series [4] (MDA-MB-231, 24 h post irradiation, trypan blue) is listed as “significantly different”. Moreover, the “ROS levels after proton irradiation vs non-irradiated controls” value in series [6] and in series [7] was “increased ROS levels in a dose-dependent manner” throughout. In addition, the “Cell morphology (TEM), no irradiation” value in series [8] is “moderate amount of vacuolization”. The “Cell morphology (TEM), 2 h after proton irradiation” value in series [8] (proton beam 2.0 MeV) is reported as “necrosis”. Further, the Solubility in water result in series [9] is recorded as “approx. 1 M”. In series [10], the “Stability in cellular medium” value is recorded as “did not suffer degradation”.

By IC50 is commonly meant the concentration at which inhibition is half-maximal. A low value points to higher potency.
